Literature values, collected in patent publication US20240165186A1, “Synergistically Formulated Compound for Mitochondria Supplementation and Enhancement” (priority 2022, published 2024).

Conditions: relative to vitamin C; no test described

Question: For `O=C(O)c1cc(C(=O)O)c2c(n1)C(=O)C(=O)c1cc(C(=O)O)[nH]c1-2` [PQQ, Pyrroloquinoline Quinone], which “times more effective than vitamin C as an antioxidant” value is on record?
Answer: ≤ 1000 times
